The record followed here is patent publication US20250304620A1, “ANTIMICROBIAL PEPTIDE AND APPLICATION THEREOF” (priority 2023, published 2025).

For assay [1], the system named is Methicillin-resistant Staphylococcus aureus (MRSA). Format: in vivo, ICR mice. To be noted: 0.1 mL twice a day for 4 days, mouse back skin infection. The procedure:
(§1) Both female and male ICR mice were used in the test, half of the female and male mice were taken and randomly assigned into groups, with 10 mice in each group, and kept in separate cages. The mice were divided into a blank group, a model group, a positive control Methicillin group, and topical formulation groups of AMPs LV-1 to LV-30. Suspensions of Methicillin-sensitive Staphylococcus aureus (NRS 384) and Methicillin-resistant Staphylococcus aureus (MRSA) were prepared, and their concentrations were adjusted to a concentration of 5×10^6 CFU/mL for subsequent use. Hair on backs of the mice was shaved with a shaver, wound was created on back skin of each mouse using a biopsy punch, and the wound was then infected with Methicillin-sensitive Staphylococcus aureus and Methicillin-resistant Staphylococcus aureus (0.1 mL, 5×10^6 CFU/mL) to establish infection models. Except for the blank group and the model group, all other groups received corresponding topical formulations applied directly to the infected areas, with a dose of 0.1 mL, twice a day for 4 consecutive days. On the day following the final administration, skin from the infected sites of each group was aseptically collected, and an antibacterial rate was calculated.

Assay [2] relates to Methicillin-sensitive Staphylococcus aureus (NRS 384). In kind it is in vivo, ICR mice. The settings on record: 0.1 mL twice a day for 4 days, mouse back skin infection. The procedure: as §1
Assay [3] relates to Staphylococcus aureus (NRS 384). In words: microbe, parasite or virus in culture. In kind it is cell-based. The settings on record: Staphylococcus aureus (NRS 384). The method, boiled down:
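CLSI broth microdilution with serial twofold dilutions gave MICs against S. aureus NRS 384, with 5 parallel replicates. Levofloxacin and the AMP Cbf-K16 served as positive controls.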

Assay [4] has as its system Staphylococcus aureus ATCC 25923. Format: cell-based. A digest of the protocol: (§2)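 The assay follows US Clinical and Laboratory Standards Institute rules: a serial twofold microdilution of each peptide against each organism gives the MIC. Experiments were carried out five times side by side.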
The subject of assay [5] is Bacillus subtilis ATCC 6633. Format: cell-based. A digest of the protocol: as §2
A further assay deals with Candida utilis ATCC 9950. Format: cell-based. A digest of the protocol: as §2
Assay [6] has as its system Salmonella typhimurium ATCC 14028. Format: cell-based. The method, boiled down:
as §2

Assay [7] relates to Candida glabrata ATCC 15126. In kind it is cell-based. A digest of the protocol:
as §2

Where two headings read alike, the source gives them in different places. Non-standard residues stand in square brackets, D forms with d. PEG2000 = polyethylene glycol 2000, conjugated to the N-terminus; PEG4000 = polyethylene glycol 4000, conjugated to the C-terminus; PEG500 = polyethylene glycol 500, conjugated to the C-terminus; 2Nal = N[C@@H](Cc1ccc2ccccc2c1)C(=O)O; PEG1000 = polyethylene glycol 1000

For the substance “Ac-RKLLXRLKXRK-PEG500 [LV-27] (Ac-RKLL[2Nal]RLK[2Nal]RK-PEG500) [polyethylene glycol 500 conjugated to C-terminal; X=3-(2-naphthyl)-alanine]”, the “Inhibition rate against Methicillin-resistant Staphylococcus aureus (%)” value was 86.50% in assay [1] (topical formulation 0.2 mg/mL), 89.66% in assay [1] (topical formulation 1 mg/mL) and 88.02% in assay [1] (topical formulation 5 mg/mL). The “Inhibition rate against Methicillin-sensitive Staphylococcus aureus (%)” value in assay [2] (topical formulation 0.2 mg/mL) was 97.01%; in assay [2] (topical formulation 1 mg/mL) it was 98.74%; in assay [2] (topical formulation 5 mg/mL), 97.65%. Further, the “MIC against Staphylococcus aureus (NRS 384)” value (“MIC … (NRS 384)” below) in assay [3] came out at 1 µg/mL. Moreover, the “MIC Staphylococcus aureus ATCC 25923” value in assay [4] came out at 1 µg/mL. Also, the “MIC Bacillus subtilis ATCC 6633” value in assay [5] came out at 2 µg/mL. Moreover, the “MIC Candida utilis ATCC 9950” value in the assay on Candida utilis ATCC 9950 was found to be 16 µg/mL. Also, in assay [6], the “MIC Salmonella typhimurium ATCC 14028” value came out at 2 µg/mL. In assay [7], the “MIC Candida glabrata ATCC 15126” value is 8 µg/mL.

Turning to “Ac-RKLLXRLKXRK-PEG1000 [LV-28] (Ac-RKLL[2Nal]RLK[2Nal]RK-PEG1000) [polyethylene glycol 1000 conjugated to C-terminal; X=3-(2-naphthyl)-alanine]”, the figures for the “Inhibition rate against Methicillin-resistant Staphylococcus aureus (%)” value in assay [1] (topical formulation 0.2 mg/mL), in assay [1] (topical formulation 1 mg/mL) and in assay [1] (topical formulation 5 mg/mL) were 86.23%, 87.81% and 88.66%, respectively. Moreover, the figures for the “Inhibition rate against Methicillin-sensitive Staphylococcus aureus (%)” value in assay [2] (topical formulation 0.2 mg/mL), in assay [2] (topical formulation 1 mg/mL) and in assay [2] (topical formulation 5 mg/mL) were 96.03%, 96.75% and 97.82%, respectively. Besides, the “MIC … (NRS 384)” value in assay [3] came out at 1 µg/mL. The “MIC Staphylococcus aureus ATCC 25923” value in assay [4] was 2 µg/mL. Besides, the “MIC Bacillus subtilis ATCC 6633” value in assay [5] turned out to be 4 µg/mL. In addition, the “MIC Candida utilis ATCC 9950” value with Candida utilis ATCC 9950 was found to be 8 µg/mL. Further, the “MIC Salmonella typhimurium ATCC 14028” value in assay [6] is 4 µg/mL. Further, the “MIC Candida glabrata ATCC 15126” value in assay [7] is 8 µg/mL.

For “Ac-RKLLXRLKXRK-PEG4000 [LV-30] (Ac-RKLL[2Nal]RLK[2Nal]RK-PEG4000) [polyethylene glycol 4000 conjugated to C-terminal; X=3-(2-naphthyl)-alanine]”, the “Inhibition rate against Methicillin-resistant Staphylococcus aureus (%)” value in assay [1] (topical formulation 0.2 mg/mL) is listed as 86.10%; in assay [1] (topical formulation 1 mg/mL), 87.85%; in assay [1] (topical formulation 5 mg/mL), 88.93%. Besides, the “Inhibition rate against Methicillin-sensitive Staphylococcus aureus (%)” value in assay [2] (topical formulation 0.2 mg/mL) is on record as 96.07%; in assay [2] (topical formulation 1 mg/mL), 96.91%; in assay [2] (topical formulation 5 mg/mL) it was 98.24%. In addition, the “MIC … (NRS 384)” value in assay [3] turned out to be 1 µg/mL. In assay [4], the “MIC Staphylococcus aureus ATCC 25923” value worked out at 2 µg/mL. The “MIC Bacillus subtilis ATCC 6633” value in assay [5] was found to be 2 µg/mL. Also, in the assay on Candida utilis ATCC 9950, the “MIC Candida utilis ATCC 9950” value came to 8 µg/mL. The “MIC Salmonella typhimurium ATCC 14028” value in assay [6] amounted to 2 µg/mL. Moreover, the “MIC Candida glabrata ATCC 15126” value in assay [7] was 16 µg/mL.

“PEG2000-RKLLXRLKXRK-NH2 [LV-29] (PEG2000-RKLL[2Nal]RLK[2Nal]RK-NH2) [polyethylene glycol 2000 conjugated to N-terminal; X=3-(2-naphthyl)-alanine]”: the “Inhibition rate against Methicillin-resistant Staphylococcus aureus (%)” value stood at 86.34% in assay [1] (topical formulation 0.2 mg/mL), 87.29% in assay [1] (topical formulation 1 mg/mL) and 88.16% in assay [1] (topical formulation 5 mg/mL). Moreover, the “Inhibition rate against Methicillin-sensitive Staphylococcus aureus (%)” value in assay [2] (topical formulation 0.2 mg/mL) is 96.49%; in assay [2] (topical formulation 1 mg/mL) it was 97.11%; in assay [2] (topical formulation 5 mg/mL) it was 98.65%. Moreover, in assay [3], the “MIC … (NRS 384)” value was found to be 1 µg/mL. Moreover, the “MIC Staphylococcus aureus ATCC 25923” value in assay [4] was 2 µg/mL. Further, the “MIC Bacillus subtilis ATCC 6633” value in assay [5] turned out to be 4 µg/mL. In the assay with Candida utilis ATCC 9950, the “MIC Candida utilis ATCC 9950” value was 4 µg/mL. For the same substance, the “MIC Salmonella typhimurium ATCC 14028” value in assay [6] came out at 4 µg/mL. The “MIC Candida glabrata ATCC 15126” value in assay [7] is 8 µg/mL.
